Measured values published in article PMC10728220, “Novel 3-(pyrazol-4-yl)-2-(1H-indole-3-carbonyl)acrylonitrile derivatives induce intrinsic and extrinsic apoptotic death mediated P53 in HCT116 colon carcinoma” (Scientific Reports, 2023).
Values after ≈ are worked out from the molar mass of the structure shown.

How the values were obtained:
Human caspase-3 = test: ELISA caspase 3 production in HCT116; format: cell-based; conditions: HCT116, 7f at its IC50 value
Protocol: Apoptosis is known and identified by specific characterizations in which the activation of caspases plays an important role. In apoptotic pathways, mechanisms of (activation/inactivation) of these proteins are not fully understood. The significance of understanding the mechanistic machinery that controls programmed cell death, being initiated by various chemotherapeutic agents is very critical and attracts the attention of researchers in this area. In this assay, cells were incubated in the absence or presence of 7f with varying concentrations (39, 78, 156, 313, 625, 1250, and 2500 ng/ml), inducing a concentration-dependent increase in caspase3 production in HCT116. […] A concentration of 7f was used at its IC50 value and compared directly to the control. […] However, there was only 103.5 pg/ml induced by control cells. It was interesting to note that chalcone 7f stimulated the production of caspase 3 protein in HCT116 cells 4.8-fold compared to control as outlined in Fig. 7.
The quantitative measurements of Human caspases-3, -8, and -9 concentrations in HCT116 cell culture lysates were performed using ELISA assay. […] All readings were measured immediately at a wavelength of 450 nm. From the readings of the standards, a standard curve was plotted using curve fitting software. Then, the concentrations for unknown samples and controls were measured from the standard curve.

[1] = test system: colorectal carcinoma (HCT116); test: Cytotoxic MTT assay, HCT116; format: cell-based, human
Protocol: (§1) MTT protocol was performed to study the viability of cells after treatment with the tested compounds. The studied cell lines (A549 and HCT116) were cultured and grown in RPMI‐1640 media, while HFB4 cells were reserved in DMEM‐F12 media. Both media were supplemented with 10% FBS, 1% L‐glutamine, and 1% antibiotic–antimycotic mixture. The cell lines were grown at conditions of 37 °C and 5% CO2. 10 × 10^3 of A549, and HCT116 cells and the same count of normal melanocytes (HFB4) were cultured in a 96‐well plate. The selected cultured cells were kept at 37°C and 5% CO2 overnight. Then, the medium was discarded after 24 h of incubation, and 100 µL from different concentrations of the studied compounds dissolved in fresh medium without serum, with final concentrations of 100, 50, 25, 12.5, 6.25, 3.125, 1.56, and 0.78 µg/mL was added. The treated cells were then incubated for 48 h. After that, 50 µL of MTT was added into each well for 4 h for the formazan crystals to be formed. Finally, 200 µl of 10% sodium dodecyl sulphate (SDS) was added to each well, and plates were kept at room temperature overnight to allow the reaction to be stopped. The optical density at 575 nm was read using a microplate multi-well reader, and the percentage of cell viability was calculated. The dose–response curve was drawn to calculate the IC50 values for each compound using the prism GraphPad 5 program, [84]. 5 Fluorouracil, a commercial anticancer drug was used as a reference drug (positive control). Negative untreated cell control was used in this assay.

Human caspase-8 = test: ELISA caspase 8 production in HCT116; format: cell-based
Protocol: The production of caspase 8 was determined using various concentrations of 7f in a concertation-dependent manner. There was a gradual increase in the caspase 8 production level using the following concentrations (0.156, 0.312, 0.625, 1.25, 2.5, 5, and 10 ng/ml). The maximal increase in caspase 8 production was achieved by using 7f concentrations between 5 and 10 ng/ml (Fig. 8).
The quantitative measurements of Human caspases-3, -8, and -9 concentrations in HCT116 cell culture lysates were performed using ELISA assay. The protocols were followed up based on the manuscript instructions described in the following kits; Invitrogen human Caspase-3 Elisa Kit, Catalog # KHO1091, DRG® human Caspase-8 ELISA Kit, Catalog # (EIA-4863), and DRG® human Caspase-9 ELISA Kit, Catalog # (EIA-4860)respectively. In short, the procedure described in the above protocols was as instructed; all reagents, standards, and samples were prepared. Then, 100 μL of standard or samples were added to each well and incubated at room temperature for 2 h. Afterward, 100 μL of the prepared antibody (anti-rabbit-IgG-HRP) was added to all wells for 1 h at room temperature. […] All readings were measured immediately at a wavelength of 450 nm. From the readings of the standards, a standard curve was plotted using curve fitting software. Then, the concentrations for unknown samples and controls were measured from the standard curve.

Bcl2 = test: RT-PCR gene expression, Bcl2, in HCT116; format: cell-based, human; conditions: HCT116, 6.76 µg/mL, 48 h, relative to untreated control
Protocol: In this current research, relative gene expression related to apoptosis should be studied well because they were very interesting to understand the effect of our selected compound on this important biological process. HCT116 cells were treated with chalcone 7f (6.76µg/mL) for 48 h, and then subjected to qPCR analysis regarding control samples. The effect of chalcone 7f on the expression level of (Bax, p53, Bcl2, and CDK4) genes was assessed using the qPCR technique. […] As indicated in this schematic diagram, the expression of apoptotic genes (Bax and P53) was enhanced by the effect of chalcone 7f to reach (3.662, and 5.435) respectively, relative to the control.
Total RNA was extracted from the compound 7f-treated HCT116 cells and the untreated cells using the RNA Purification Kit GeneJET (Thermo scientific, ON, Canada) 0.1 µg of the extracted RNA was reverse transcribed into complementary DNA (cDNA) using High-Capacity cDNA Reverse Transcription Kit (Thermo Scientific, ON, Canada). qPCR was done using Brilliant SYBR Green qPCR master mix (Applied Biosystems, San Francisco, CA, USA) in One Step Plus Real-Time PCR System (Applied Biosystems, San Francisco, CA, USA). […] The relative gene expression was determined using the 2^−ΔΔCt equation after normalization to the expression of β-actin (housekeeping gene) (Qiagen, CA, USA)(10 pmol/µL)[85], [86]. […]

[2] = test system: normal human skin melanocyte cell line (HFB4); test: Cytotoxic MTT assay, normal HFB4 cells; format: cell-based; conditions: 48 h treatment
Protocol: as §1

Question: Which “caspase 3 production, fold compared to control” value (Human caspase-3) does the source give for `N#C/C(=C\c1cn(-c2ccccc2)nc1-c1ccc([N+](=O)[O-])cc1)C(=O)c1c[nH]c2ccccc12` [Compound 7f, (E)-2-(1H-Indole-3-carbonyl)-3-(3-(4-nitrophenyl)-1-phenyl-1H-pyrazol-4-yl)acrylonitrile] here?
Answer: Its value is 4.8 fold.

Question: And the “caspase 3 protein production” value (Human caspase-3; control cells 103.5 pg/ml)?
Answer: Its value is 504.1 pg/mL.

Question: What about the “Selectivity index (SI) = IC50 in normal cells/IC50 in tumor cells” value ([1]; HFB4 versus HCT116) of the same compound?
Answer: The value was 8.4.

Question: What about the IC50 ([1]; Homo sapiens, HCT-116, MTT, 48 h treatment) of the same compound?
Answer: The IC50 was 6.76 µg/mL (≈ 14.7 µM).

Question: And the “caspase 8 production, fold increase” value (Human caspase-8; HCT116 treated with 7f versus untreated)?
Answer: Its value is 3.788 fold.

Question: What about the “caspase 8 production level” value (Human caspase-8; HCT116 treated with 7f, untreated 0.2914 ng/ml) of the same compound?
Answer: Its value is 1.104 ng/mL.

Question: What about the “RT-PCR fold change bcl2” value (Bcl2) of the same compound?
Answer: The value was 0.351 fold.

Question: And the IC50 [2]?
Answer: The IC50 was 56.7 µg/mL (≈ 123 µM).
